Data reported in ChEMBL document CHEMBL5113453, “Design, synthesis, and biological evaluation of a new series of pyrazole derivatives: Discovery of potent and selective JNK3 kinase inhibitors” (Bioorg Med Chem, 2022).

Key:
CCRF-CEM = experiment: Antiproliferative activity against human CCRF-CEM cells measured after 48 hrs by SRB assay; assay type: functional, cell-based
HL-60(TB) = experiment: Antiproliferative activity against human HL-60(TB) cells measured after 48 hrs by SRB assay; assay type: functional, cell-based
K562 = experiment: Antiproliferative activity against human K562 cells measured after 48 hrs by SRB assay; assay type: functional, cell-based
MOLT-4 = experiment: Antiproliferative activity against human MOLT-4 cells measured after 48 hrs by SRB assay; assay type: functional, cell-based
RPMI-8226 = experiment: Antiproliferative activity against human RPMI-8226 cells measured after 48 hrs by SRB assay; assay type: functional, cell-based
A549 = experiment: Antiproliferative activity against human A549 cells measured after 48 hrs by SRB assay; assay type: functional, cell-based
HOP-92 = experiment: Antiproliferative activity against human HOP-92 cells measured after 48 hrs by SRB assay; assay type: functional, cell-based
NCI-H322M = experiment: Antiproliferative activity against human NCI-H322M cells measured after 48 hrs by SRB assay; assay type: functional, cell-based
NCI-H460 = experiment: Antiproliferative activity against human NCI-H460 cells measured after 48 hrs by SRB assay; assay type: functional, cell-based
COLO 205 = experiment: Antiproliferative activity against human COLO 205 cells measured after 48 hrs by SRB assay; assay type: functional, cell-based
HCT-116 = experiment: Antiproliferative activity against human HCT-116 cells measured after 48 hrs by SRB assay; assay type: functional, cell-based
KM12 = experiment: Antiproliferative activity against human KM12 cells measured after 48 hrs by SRB assay; assay type: functional, cell-based
SW-620 = experiment: Antiproliferative activity against human SW-620 cells measured after 48 hrs by SRB assay; assay type: functional, cell-based
SF-268 = experiment: Antiproliferative activity against human SF-268 cells measured after 48 hrs by SRB assay; assay type: functional, cell-based
SF-295 = experiment: Antiproliferative activity against human SF-295 cells measured after 48 hrs by SRB assay; assay type: functional, cell-based
SNB-75 = experiment: Antiproliferative activity against human SNB-75 cells measured after 48 hrs by SRB assay; assay type: functional, cell-based
M14 = experiment: Antiproliferative activity against human M14 cells measured after 48 hrs by SRB assay; assay type: functional, cell-based
MDA-MB-435 = experiment: Antiproliferative activity against human MDA-MB-435 cells measured after 48 hrs by SRB assay; assay type: functional, cell-based
SK-MEL-2 = experiment: Antiproliferative activity against human SK-MEL-2 cells measured after 48 hrs by SRB assay; assay type: functional, cell-based
SK-MEL-28 = experiment: Antiproliferative activity against human SK-MEL-28 cells measured after 48 hrs by SRB assay; assay type: functional, cell-based
SK-MEL-5 = experiment: Antiproliferative activity against human SK-MEL-5 cells measured after 48 hrs by SRB assay; assay type: functional, cell-based
UACC-257 = experiment: Antiproliferative activity against human UACC-257 cells measured after 48 hrs by SRB assay; assay type: functional, cell-based
UACC-62 = experiment: Antiproliferative activity against human UACC-62 cells measured after 48 hrs by SRB assay; assay type: functional, cell-based
OVCAR-3 = experiment: Antiproliferative activity against human OVCAR-3 cells measured after 48 hrs by SRB assay; assay type: functional, cell-based
OVCAR-4 = experiment: Antiproliferative activity against human OVCAR-4 cells measured after 48 hrs by SRB assay; assay type: functional, cell-based
OVCAR-5 = experiment: Antiproliferative activity against human OVCAR-5 cells measured after 48 hrs by SRB assay; assay type: functional, cell-based
NCI/ADR-RES = experiment: Antiproliferative activity against human NCI-ADR-RES cells measured after 48 hrs by SRB assay; assay type: functional, cell-based
SK-OV-3 = experiment: Antiproliferative activity against human SK-OV-3 cells measured after 48 hrs by SRB assay; assay type: functional, cell-based
A498 = experiment: Antiproliferative activity against human A498 cells measured after 48 hrs by SRB assay; assay type: functional, cell-based
ACHN = experiment: Antiproliferative activity against human ACHN cells measured after 48 hrs by SRB assay; assay type: functional, cell-based
CAKI-1 = experiment: Antiproliferative activity against human CAKI-1 cells measured after 48 hrs by SRB assay; assay type: functional, cell-based
RXF 393 = experiment: Antiproliferative activity against human RXF 393 cells measured after 48 hrs by SRB assay; assay type: functional, cell-based
TK-10 = experiment: Antiproliferative activity against human TK-10 cells measured after 48 hrs by SRB assay; assay type: functional, cell-based
PC-3 = experiment: Antiproliferative activity against human PC-3 cells measured after 48 hrs by SRB assay; assay type: functional, cell-based
MDA-MB-231 = experiment: Antiproliferative activity against human MDA-MB-231 cells measured after 48 hrs by SRB assay; assay type: functional, cell-based
MDA-MB-468 = experiment: Antiproliferative activity against human MDA-MB-468 cells measured after 48 hrs by SRB assay; assay type: functional, cell-based
WI-38 = experiment: Antiproliferative activity against human WI-38 cells measured by MTT assay; assay type: functional, cell-based
[1] = molecular target: T1, Mitogen-activated protein kinase 10 (Homo sapiens, UniProt P53779); experiment: Inhibition of JNK3 (unknown origin) at 1 uM relative to control
T1 sequence (P53779 whole entry): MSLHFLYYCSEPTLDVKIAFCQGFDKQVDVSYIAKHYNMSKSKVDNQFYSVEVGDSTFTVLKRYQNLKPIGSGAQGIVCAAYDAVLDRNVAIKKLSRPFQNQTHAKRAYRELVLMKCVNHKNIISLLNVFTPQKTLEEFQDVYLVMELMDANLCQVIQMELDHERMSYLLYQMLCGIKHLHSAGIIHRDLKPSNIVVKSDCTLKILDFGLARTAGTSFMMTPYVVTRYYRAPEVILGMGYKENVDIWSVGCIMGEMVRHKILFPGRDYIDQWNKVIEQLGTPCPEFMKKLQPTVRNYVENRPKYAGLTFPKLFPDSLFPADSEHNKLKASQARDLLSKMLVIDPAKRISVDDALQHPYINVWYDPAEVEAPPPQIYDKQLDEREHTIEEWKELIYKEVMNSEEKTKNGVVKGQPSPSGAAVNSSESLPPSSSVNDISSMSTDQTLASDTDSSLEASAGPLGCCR

[2] = molecular target: T1, Mitogen-activated protein kinase 10; experiment: Inhibition of JNK3 (unknown origin)

SMILES: O=C(NCCCNc1cc(-c2cn(-c3ccccc3)nc2-c2cccc(O)c2)ccn1)Nc1ccc(F)cc1
- IC50 (CCRF-CEM; 48 h): 1420 nM
- TGI (CCRF-CEM; time 48 hrs): > 25 µM
- IC50 (HL-60(TB); HL-60, 48 h): 2150 nM
- TGI (HL-60(TB); HL-60, time 48 hrs): 14.2 µM
- IC50 (K562; K562, 48 h): 810 nM
- TGI (K562; K562, time 48 hrs): > 14.2 µM
- IC50 (MOLT-4; MOLT-4, 48 h): 1250 nM
- TGI (MOLT-4; MOLT-4, time 48 hrs): 15.6 µM
- IC50 (RPMI-8226; RPMI-8226, 48 h): 870 nM
- TGI (RPMI-8226; RPMI-8226, time 48 hrs): 5.47 µM
- IC50 (A549; A549, 48 h): 3.12 µM
- TGI (A549; A549, time 48 hrs): > 21.7 µM
- IC50 (HOP-92; HOP-92, 48 h): 860 nM
- TGI (HOP-92; HOP-92, time 48 hrs): 4.97 µM
- IC50 (NCI-H322M; 48 h): 3.7 µM
- TGI (NCI-H322M; time 48 hrs): 12.4 µM
- IC50 (NCI-H460; NCI-H460, 48 h): 2350 nM
- TGI (NCI-H460; NCI-H460, time 48 hrs): 5.88 µM
- IC50 (COLO 205; COLO 205, 48 h): 2340 nM
- TGI (COLO 205; COLO 205, time 48 hrs): 6.28 µM
- IC50 (HCT-116; HCT-116, 48 h): 1620 nM
- TGI (HCT-116; HCT-116, time 48 hrs): 5.82 µM
- IC50 (KM12; KM12, 48 h): 2610 nM
- TGI (KM12; KM12, time 48 hrs): 5.79 µM
- IC50 (SW-620; SW-620, 48 h): 3.04 µM
- TGI (SW-620; SW-620, time 48 hrs): 6.73 µM
- IC50 (SF-268; SF-268, 48 h): 2610 nM
- TGI (SF-268; SF-268, time 48 hrs): 11.2 µM
- IC50 (SF-295; SF-295, 48 h): 1380 nM
- TGI (SF-295; SF-295, time 48 hrs): 4.84 µM
- IC50 (SNB-75; SNB-75, 48 h): 540 nM
- TGI (SNB-75; SNB-75, time 48 hrs): 3.18 µM
- IC50 (M14; M14, 48 h): 1570 nM
- TGI (M14; M14, time 48 hrs): 5.85 µM
- IC50 (MDA-MB-435; MDA-MB-435, 48 h): 1660 nM
- TGI (MDA-MB-435; MDA-MB-435, time 48 hrs): 5.05 µM
- IC50 (SK-MEL-2; SK-MEL-2, 48 h): 4 µM
- TGI (SK-MEL-2; SK-MEL-2, time 48 hrs): 10.1 µM
- IC50 (SK-MEL-28; SK-MEL-28, 48 h): 2540 nM
- TGI (SK-MEL-28; SK-MEL-28, time 48 hrs): 5.64 µM
- IC50 (SK-MEL-5; SK-MEL-5, 48 h): 1640 nM
- TGI (SK-MEL-5; SK-MEL-5, time 48 hrs): 4.83 µM
- IC50 (UACC-257; UACC-257, 48 h): 3.07 µM
- TGI (UACC-257; UACC-257, time 48 hrs): 7.54 µM
- IC50 (UACC-62; UACC-62, 48 h): 3.14 µM
- TGI (UACC-62; UACC-62, time 48 hrs): 6.6 µM
- IC50 (OVCAR-3; OVCAR-3, 48 h): 2160 nM
- TGI (OVCAR-3; OVCAR-3, time 48 hrs): 8.69 µM
- IC50 (OVCAR-4; OVCAR-4, 48 h): 1460 nM
- TGI (OVCAR-4; OVCAR-4, time 48 hrs): 8.21 µM
- IC50 (OVCAR-5; OVCAR-5, 48 h): 3.37 µM
- TGI (OVCAR-5; OVCAR-5, time 48 hrs): 9.12 µM
- IC50 (NCI/ADR-RES; 48 h): 3.51 µM
- TGI (NCI/ADR-RES; time 48 hrs): 12.5 µM
- IC50 (SK-OV-3; SK-OV-3, 48 h): 3.12 µM
- TGI (SK-OV-3; SK-OV-3, time 48 hrs): 10.8 µM
- IC50 (A498; A498, 48 h): 1210 nM
- TGI (A498; A498, time 48 hrs): 4.96 µM
- IC50 (ACHN; 48 h): 3.16 µM
- TGI (ACHN; time 48 hrs): 14.2 µM
- IC50 (CAKI-1; CAKI-1, 48 h): 2040 nM
- TGI (CAKI-1; CAKI-1, time 48 hrs): 10.7 µM
- IC50 (RXF 393; RXF 393, 48 h): 970 nM
- TGI (RXF 393; RXF 393, time 48 hrs): 4.85 µM
- IC50 (TK-10; TK-10, 48 h): 6.78 µM
- TGI (TK-10; TK-10, time 48 hrs): 20.3 µM
- IC50 (PC-3; PC-3, 48 h): 1330 nM
- TGI (PC-3; PC-3, time 48 hrs): 8.92 µM
- IC50 (MDA-MB-231; MDA-MB-231, 48 h): 2180 nM
- TGI (MDA-MB-231; MDA-MB-231, time 48 hrs): 7.78 µM
- IC50 (MDA-MB-468; MDA-MB-468, 48 h): 1180 nM
- TGI (MDA-MB-468; MDA-MB-468, time 48 hrs): 4.66 µM
- IC50 (WI-38): 16.8 µM
- inhibition [1]: 94%
- IC50 [2]: 97.4 nM
